# In US20190160035A1, “METHOD OF TREATMENT” (QBIOTICS LIMITED, priority 2016, published 2019):
# “Also recorded” adds a separate entry of the source.
# Assays:
# [1] = system: MCT (cutaneous and subcutaneous); experiment: Example 7: treatment of MCT (repeat of Example 1), complete response and healing by time point; assay type: in vivo, dogs; conditions: for Complete response: Cumulative % / Complete response: Number of tumors on given study day: 11 treated tumors in 10 dogs; for Healing: Cumulative % / Healing: Number of tumor sites healed on given study day: 11 treated tumors
# Procedure: The study of Example 1 was repeated. The drug used was Compound 1 formulated in 40% propylene glycol and 30 MM acetate buffer at pH 4.2.
# While tumor evaluation and measurement data for 11 cases are presented, this actually represents only 10 dogs, one of which had two tumors treated consecutively (identified as cases SI-01 and SI-02). PK sampling was performed only once for this dog (SI-01).
# Of the other ten tumors, nine were considered CR by day 7 (+2) and one was CR by day 14 (+2). The investigator also reported that all of these tumors remained a CR on day 28 […].
# Healing was more variable for the cases, with one healed at the day 14 visit and over half the tumor sites healed by the day 28 visit. The two cases with the largest tumor volumes at day 0 (SI-04 5.6 cm^3, and SI-11 6.8 cm^3) required healing time beyond the day 28 visit, i.e., an additional four weeks for SI-04 and an additional 19.7 weeks for SI-11. For SI-11, it was noted the dog was licking the tumor site and the investigator felt it may have prolonged the healing time. The investigator believed the wound required intervention on this case that included debridement once on study day 56 followed by periodic bandage replacement.
# [2] = Example 7: injection site abnormalities after IVP dosing (VCOG CTCAE); assay type: in vivo, dogs; parameters: key to VCOG CTCAE Magnitude of injection site abnormality: Grade 1: Mild; asymptomatic or mild symptoms; clinical signs or diagnostic observations only; intervention not indicated; key to VCOG CTCAE Relationship to IVP of injection site abnormality: Unrelated: Clearly not related to IVP; Unlikely: Doubtfully related to IVP; Possible: May be related to IVP; Probably: Likely related to IVP; Definite: Clearly related to IVP
# Source text: Injection site abnormalities were reported within the immediate post-injection period for six cases. […] An analgesic was prescribed to start on day 0 for one of the six cases (SI-11). […] The VCOG CTCAE classifications of these injection site abnormalities for magnitude and relationship to IVP as determined by the investigator are listed in Table 35.
# [3] = Example 5: adverse events (VCOG-CTCAE classification); assay type: in vivo, Canis lupus familiaris (dog)
# Source text: With the exception of swelling and pain, local tissue pathology as a result of treatment (i.e. tumor necrosis) was not considered an adverse event (AE). AEs reported such as transitory post treatment lethargy, listlessness and apathy are generally considered to be the result of the powerful local inflammatory response and systemic activation of the dog's immune response during the treatment response phase. In this study, 72 AEs were identified in 14 event types (see Table 28). The majority of identified AEs (59 out of 72; 82%) were represented by the ‘mild’ VCOG-CTCAE classification Grade 1 with no intervention required. With the exception of dogs C05-T-04 and C05-T-17 (described previously), a level of minimal medical intervention was required in only 3 cases. Dog C05-T-05 was medicated with metronidazole for transient diarrhea reported on Day 14 post-treatment; dog C05-T-07 was medicated with an antibiotic course (amoxicillin/clavulanic acid) for skin pustulation on the ventral abdomen (distant to drug injection site); and dog C05-T-09 was prescribed a prophylactic antibiotic course (cephalexin) on Day 21 on observation by the referral practice of ‘inflamed and angry’ lesion edges and having an impression smear of wound surface with ‘neutrophils and round cells (without granules)’. These findings for dog C05-T-09 of neutrophil presence is perhaps not unexpected due to the mechanism of action of the drug. The dog was reported having normal demeanour at this time. With the exception of the limb swelling in dog C05-T-17 (degranulation reaction), all reported AEs were transient in nature—resolved by 24-48 h post treatment.
# [4] = immediate post-injection period
structure (smiles),measurement,setting,value
"C/C=C(\C)C(=O)O[C@@H]1[C@@H](C)[C@@]2(O)[C@H]([C@@H]3C(C)(C)[C@]13OC(=O)[C@@H](C)CC)[C@@H]1O[C@]1(CO)[C@@H](O)[C@]1(O)C(=O)C(C)=C[C@H]12 [Compound 1, 12-tigloyl-13-(2-methylbutanoyl)-6,7-epoxy-4,5,9,12,13,20-hexahydroxy-1-tigliaen-3-one]",Response of the five cases with leakage of IVP upon injection,"[1]; SI-01, SI-02, SI-04, SI-05, SI-10, on or before the day 14 visit",complete response
same,Complete response: Cumulative %,[1]; Study day 7 (+2),82%
same,Complete response: Number of tumors on given study day,[1]; Study day 7 (+2),9
same,Healing: Cumulative %,[1]; Study day 14 (+2),9%
same,Healing: Number of tumor sites healed on given study day,[1]; Study day 14 (+2),1
same,Complete response: Cumulative %,[1]; Study day 14 (+2),91%
same,Complete response: Number of tumors on given study day,[1]; Study day 14 (+2),1
same,Healing: Cumulative %,[1]; Study day 28 (+4),55%
same,Healing: Number of tumor sites healed on given study day,[1]; Study day 28 (+4),5
same,Healing: Cumulative %,[1]; Study day 33,64%
same,Healing: Number of tumor sites healed on given study day,[1]; Study day 33,1
same,Healing: Cumulative %,[1]; Study day 42,73%
same,Healing: Number of tumor sites healed on given study day,[1]; Study day 42,1
same,Healing: Cumulative %,[1]; Study day 56,82%
same,Healing: Number of tumor sites healed on given study day,[1]; Study day 56,1
same,Healing: Cumulative %,[1]; Study day 166,91%
same,Healing: Number of tumor sites healed on given study day,[1]; Study day 166,1
same,Change of tumor volumes after drug treatment,[1]; all tumors with the exception of SI-03,decreased in size
same,Course of MCT despite drug treatment,"[1]; case SI-03, withdrawn after day 28 visit",continued to enlarge
same,Additional healing time beyond the day 28 visit,"[1]; case SI-11, tumor volume 6.8 cm^3 at day 0, dog licking site, debridement day 56",19.7 weeks
same,Status of the ten responding tumors on day 28 (+4),[1]; investigator report,remained a CR
same,Number of tumors with a complete response (CR) during the study,[1]; of 11 tumors,Ten
same,Percent of tumors with a complete response (CR) during the study,[1]; of 11 tumors,90.9%
same,Number of tumors considered CR by day 7 (+2),[1]; of ten responding tumors,nine
same,Number of tumors CR by day 14 (+2),"[1]; of ten responding tumors, not CR by day 7",one
same,Number of cases healed at the day 14 visit,[1]; tumor site healing,one
same,Share of tumor sites healed by the day 28 visit,[1]; tumor site healing,over half
same,Number of cases with injection site abnormalities in the immediate post-injection period,[2]; 11 cases,six
same,Number of cases that exhibited restlessness,[2]; [4],three
same,Number of cases that experienced pain,[2]; [4],Three
same,Day by which injection site abnormalities resolved,[2]; pain and restlessness,≤ 1 days
same,VCOG CTCAE Relationship to IVP of injection site abnormality,"[2]; per case, as determined by the investigator",Definite; also recorded: Possible; also recorded: Probable
same,VCOG CTCAE Magnitude of injection site abnormality,"[2]; per case, immediate post-injection period",Grade 1^f
same,Number of AEs identified,"[3]; 18 cases, 14 event types",72
same,Share of AEs of VCOG-CTCAE Grade 1,[3]; 59 out of 72,82%
same,Apathy: VCOG-CTCAE Grade classification (no. of animals),[3]; Grade 1,1 (2)
same,Bruising at treatment site: VCOG-CTCAE Grade classification (no. of animals),[3]; Grade 1,1 (13)
same,Inappetance: VCOG-CTCAE Grade classification (no. of animals),[3]; Grade 1,1 (6)
same,Lethargy: VCOG-CTCAE Grade classification (no. of animals),[3]; Grade 1,1 (5)
same,Listless: VCOG-CTCAE Grade classification (no. of animals),[3]; Grade 1,1 (2)
same,Local swelling at treatment site: VCOG-CTCAE Grade classification (no. of animals),[3]; Grade 1,1 (17)
same,Pain associated with treatment site: VCOG-CTCAE Grade classification (no. of animals),[3]; Grade 1,1 (12)
same,Polydipsia: VCOG-CTCAE Grade classification (no. of animals),[3]; Grade 1,1 (1)
same,Ringworm: VCOG-CTCAE Grade classification (no. of animals),[3]; Grade 1,1 (1)
same,Transient Diarrhoea: VCOG-CTCAE Grade classification (no. of animals),[3]; Grade 1,1 (1)
same,Vomiting: VCOG-CTCAE Grade classification (no. of animals),[3]; Grade 1,1 (2)
same,Bruising at treatment site: VCOG-CTCAE Grade classification (no. of animals),[3]; Grade 2,2 (1)
same,Cranial abdominal pain: VCOG-CTCAE Grade classification (no. of animals),[3]; Grade 2,2 (1)
same,Inappetance: VCOG-CTCAE Grade classification (no. of animals),[3]; Grade 2,2 (1)
same,Injection site lesion antimicrobial prophylaxis: VCOG-CTCAE Grade classification (no. of animals),[3]; Grade 2,2 (1)
same,Lethargy: VCOG-CTCAE Grade classification (no. of animals),[3]; Grade 2,2 (1)
same,Local swelling at treatment site: VCOG-CTCAE Grade classification (no. of animals),[3]; Grade 2,2 (1)
same,Pain associated with treatment site: VCOG-CTCAE Grade classification (no. of animals),[3]; Grade 2,2 (1)
same,Skin pustulation: VCOG-CTCAE Grade classification (no. of animals),[3]; Grade 2,2 (1)
same,Transient Diarrhoea: VCOG-CTCAE Grade classification (no. of animals),[3]; Grade 2,2 (1)
same,Vomiting: VCOG-CTCAE Grade classification (no. of animals),[3]; Grade 2,2 (1)
same,Apathy: Incidence (%),[3]; all dogs (18 cases),11.1%
same,Apathy: No. of dogs experiencing this event,[3]; all dogs (18 cases),2
same,Bruising at treatment site: Incidence (%),[3]; all dogs (18 cases),77.8%
same,Bruising at treatment site: No. of dogs experiencing this event,[3]; all dogs (18 cases),14
same,Cranial abdominal pain: Incidence (%),[3]; all dogs (18 cases),5.6%
same,Cranial abdominal pain: No. of dogs experiencing this event,[3]; all dogs (18 cases),1
same,Inappetance: Incidence (%),[3]; all dogs (18 cases),38.9%
same,Inappetance: No. of dogs experiencing this event,[3]; all dogs (18 cases),7
same,Injection site lesion antimicrobial prophylaxis: Incidence (%),[3]; all dogs (18 cases),5.6%
same,Injection site lesion antimicrobial prophylaxis: No. of dogs experiencing this event,[3]; all dogs (18 cases),1
same,Lethargy: Incidence (%),[3]; all dogs (18 cases),33.3%
same,Lethargy: No. of dogs experiencing this event,[3]; all dogs (18 cases),6
same,Listless: Incidence (%),[3]; all dogs (18 cases),11.1%
same,Listless: No. of dogs experiencing this event,[3]; all dogs (18 cases),2
same,Local swelling at treatment site: Incidence (%),[3]; all dogs (18 cases),100.0%
same,Local swelling at treatment site: No. of dogs experiencing this event,[3]; all dogs (18 cases),18
same,Pain associated with treatment site: Incidence (%),[3]; all dogs (18 cases),72.2%
same,Pain associated with treatment site: No. of dogs experiencing this event,[3]; all dogs (18 cases),13
same,Polydipsia: Incidence (%),[3]; all dogs (18 cases),5.6%
same,Polydipsia: No. of dogs experiencing this event,[3]; all dogs (18 cases),1
same,Ringworm: Incidence (%),[3]; all dogs (18 cases),5.6%
same,Ringworm: No. of dogs experiencing this event,[3]; all dogs (18 cases),1
same,Skin pustulation: Incidence (%),[3]; all dogs (18 cases),5.6%
same,Skin pustulation: No. of dogs experiencing this event,[3]; all dogs (18 cases),1
same,Transient Diarrhoea: Incidence (%),[3]; all dogs (18 cases),11.1%
same,Transient Diarrhoea: No. of dogs experiencing this event,[3]; all dogs (18 cases),2
same,Vomiting: Incidence (%),[3]; all dogs (18 cases),16.7%
same,Vomiting: No. of dogs experiencing this event,[3]; all dogs (18 cases),3
same,Time by which reported AEs resolved post treatment,[3]; except limb swelling in dog C05-T-17,24 to 48 h
same,Number of AEs of ‘mild’ VCOG-CTCAE Grade 1 (no intervention required),[3]; out of 72 AEs,59
same,Cases requiring minimal medical intervention,[3]; with the exception of dogs C05-T-04 and C05-T-17,3
